Source: US20160120894A1, “USE OF ADENOSINE ASPARTATE IN THE DI[…] M[…] INFLAMMATORY-[…] AND ITS REVERSAL” (UNIVERSIDAD NACIONAL AUTÓNOMA DE MÉXICO, priority 2013, published 2016)
Entries after “also recorded” stand apart in the source; their conditions may differ.

What was measured:
[1] = tested on: cytokines in liver homogenate; assay: Reversal of established CCl4 cirrhosis: cytokines in liver homogenate by Luminex; type: in vivo, Wistar rats; details: cirrhotic rats, IFC-305 50 mg/kg i.p.
Experimental: FIGS. 4A to 4D refer to the obtained results for cytokines in liver homogenate evaluated by Luminex® in the different experimental groups of cirrhotic animals (Ci) treated with IFC-305 and saline for five and ten weeks (Ci SS 5s, Ci IFC 5s, Ci SS 10s, and Ci IFC 10s). Concentration (pg/mL)±standard deviation is shown.
(§1) 100 g male Wistar rats were used, with free access to food and water. Cirrhosis was induced with 25 μl of CCl4 in vegetable oil three times a week for ten weeks. Once cirrhosis is established, the animals were divided into five groups: group I, treatment with CCl4 is suspended, control animals of cirrhosis are sacrificed, groups II and III is allowed to proceed cirrhosis and received three intraperitoneal injections of saline per week for 5 to 10 weeks, groups IV and V received three intraperitoneal injections of the compound at a dose of 50 mg/kg for 5 to 10 weeks; at the moment of sacrifice, serum and liver samples taken.

[2] = tested on: Kupffer cells (CD163+/CD11b+); assay: Prevention of CCl4-induced cirrhosis: kinetic of Kupffer cells in the liver by flow cytometry; type: in vivo, rats; details: CCl4+IFC-305 vs CCl4; 4, 6, 8 and 10 weeks
Experimental: FIG. 5 refers to the kinetic of Kupffer cells (CD163+/CD11b+) in the liver, assessed by flow cytometry at 4, 6, 8 and 10 weeks, administration with CCl4, IFC-305 and CCl4+IFC-305 to same time. % Kupffer cells±standard error.
(§2) In this study, four groups of six male rats of 100 g to 110 g were formed; the rats were treated simultaneously under the same doses with CCl4 (25 μl of carbon tetrachloride in vegetable oil) and IFC-305 (50 mg/Kg). All treatments were given three times a week for 4, 6 and 8 weeks; at the moment of sacrifice, of serum and liver were taken.
FIG. 5 refers to a graphic showing the total number of Kupffer cells quantified with CD163+/CD11b/c+ for 4, 6, 8 and 10 weeks of treatment with CCl4, with an increase during the development of cirrhosis that decreases with the treatment of the compound IFC-305.

[3] = tested on: cytokines in liver homogenate; assay: Prevention of CCl4-induced cirrhosis: cytokines in liver homogenate by Luminex; type: in vivo, rats; details: CCl4+IFC-305 50 mg/Kg, 8 weeks
From the text: FIGS. 2A and 2B refer to the results obtained for cytokines in liver homogenate evaluated by Luminex® at 8 weeks of administration of CCl4 and CCl4+IFC-305. Concentration (pg/mL)±standard deviation is shown.
(§3) Cirrhosis is a disease chronic degenerative characterized by diffuse fibrosis and regenerative nodules distorting tissue architecture. The diffuse fibrosis is supported by a chronic inflammatory process. During this process, chemokines and cytokines that favor this process are generated. In a model of prevention of cirrhosis by treatment with adenosine aspartate, knowing having an antifibrogenic effect, would allow knowing the effect of this drug during the establishment of cirrhosis for 4, 6 and 8 weeks and its effect on response activation immune and inflammation.
as §2

serum cytokine = assay: Prevention of CCl4-induced cirrhosis: serum cytokines by Luminex; type: in vivo, rats
From the text: FIGS. 1A to 1C refer to the obtained results for serum cytokine evaluated by Luminex® at 4, 6 and 8 weeks of administration of CCl4 and CCl4+IFC. Concentration (pg/mL)±standard deviation is shown.
as §3, §2

[4] = tested on: total macrophages (HIS36+/CD11b+) and inflammatory phenotype Kupffer cells (CD163+/CD11b/c+ (M1)); assay: Reversal of established CCl4 cirrhosis: distribution of liver macrophages by flow cytometry; type: in vivo, Wistar rats; details: cirrhotic rats, IFC-305 50 mg/kg i.p., five and ten weeks
Experimental: FIGS. 6A and 6B relate to the obtained results regarding the distribution of macrophages. […] Percentage (%) of Kupffer cells with respect to control±standard error.
as §1

serum cytokines = assay: Reversal of established CCl4 cirrhosis: serum cytokines by Luminex; type: in vivo, Wistar rats; details: cirrhotic rats, IFC-305 50 mg/kg i.p. three times a week vs saline
Experimental: FIGS. 3A to 3C refer to the obtained results for serum cytokines evaluated by Luminex® in the different experimental groups of cirrhotic animals (Ci) treated with IFC-305 and saline for five and ten weeks (Ci SS 5s, Ci IFC 5s, Ci SS 10s and Ci IFC 10s post-treatment with CCl4). Concentration (pg/mL)±standard deviation is shown.
as §1

Arginase I = assay: Reversal of established CCl4 cirrhosis: Western blot of Arginase I in liver homogenate; type: in vivo, Wistar rats; details: cirrhotic rats, IFC-305 50 mg/kg i.p., five and ten weeks
Experimental: FIG. 7 refers to Western blot Arginase I. Expression of total protein in liver homogenate in the different experimental groups treated with IFC-305 and saline for five and ten weeks.
as §1

[5] = CCl4+IFC-305 50 mg/Kg three times a week vs CCl4, 4, 6 and 8 weeks

In the case of adenosine aspartate [IFC-305], the “inflammatory cytokines in liver homogenate (cirrhosis high values)” value ([1]; 5 to 10 weeks) is reported as “reduced”, the “liver homogenate IL-1β” value ([1]; five and ten weeks) is reported as “decreased compared to cirrhotic control” and the “liver homogenate IL-4” value ([1]; five and ten weeks) is reported as “decreased compared to cirrhotic control”. The “liver homogenate IL-6” value ([1]; five and ten weeks) was “regulated”, the “IL-10 (anti-inflammatory cytokine), liver homogenate” value ([1]; five and ten weeks, 50 mg/kg) was “increased” and the “total number of Kupffer cells (CD163+/CD11b/c+) in the liver” value [2] was “decreases”. The “liver homogenate IL-1β” value [3] was “decreases”, the “liver homogenate IL-4” value [3] was “decreases” and the “liver homogenate IL-6” value [3] was “increase relative to the control”. For the same substance, the “liver homogenate IL-10” value [3] was “decreases”, the “liver homogenate IL-12” value [3] was “increase relative to the control” and the “liver homogenate INF-γ” value [3] was “increase relative to the control”. The “liver homogenate MCP-1” value [3] was “increase relative to the control”, the “liver homogenate IL-6” value ([3]; listed as adenosine aspartate) was “increase” and the “serum IL-1β” value (serum cytokine; [5]) was “decreasing”. For the same substance, the “serum IL-4” value (serum cytokine; [5]) was “decreasing; also recorded: decreased”, the “serum IL-6” value (serum cytokine; CCl4+IFC-305 50 mg/Kg vs CCl4, 4 and 6 weeks) was “decreasing; also recorded: decrease” and the “serum IL-6” value (serum cytokine; CCl4+IFC-305 50 mg/Kg, 8 weeks) was “increase”. The “Kupffer cells with inflammatory phenotype (M1) CD163+/CD11b/c+” value [4] was “decrease; also recorded: decreasing during the progression of cirrhosis and markedly with the treatment”, the “total macrophages (HIS36+/CD11b+) in the liver” value [4] was “increases” and the “serum IL-4” value (serum cytokines; 5 weeks) was “kept in similar values to controls or less; also recorded: maintained in an equal range to the control or lower”. The “serum IL-6” value (serum cytokines; 5 weeks) was “kept in similar values to controls or less; also recorded: maintained in an equal range to the control or lower”, the “serum IL-1β” value (serum cytokines; 10 weeks) was “kept in similar values to controls or less; also recorded: maintained in an equal range to the control or lower” and the “arginase (Arginase I) protein in liver homogenate, Western blot” value (Arginase I) was “more amount of enzyme”. For the same substance, the “arginase (Arginase I) protein in liver homogenate, Western blot” value (Arginase I; 50 mg/kg) was “increased”.
